In paper PMC5065625, “Structure-mechanism-based engineering of chemical regulators targeting distinct pathological factors in Alzheimer's disease” (Nature Communications, 2016):

Key:
[1] = tested on: human neuroblastoma SK-N-BE(2)-M17 (M17) cells; assay: Cell viability (MTT assay), compounds with and without metal ions; format: cell-based; details: with and without Cu(II) and Zn(II), up to 20 μM
Protocol: (§1) The M17 cell line was purchased from the American Type Culture Collection (ATCC, Manassas, VA, USA). The cell line was maintained in media containing 50% minimum essential medium and 50% F12 (GIBCO, Grand Island, NY, USA), supplemented with 10% fetal bovine serum (Sigma), 100 U ml^−1 penicillin, and […] streptomycin (GIBCO). The cells were grown and maintained at 37 °C in a humidified atmosphere with 5% CO2. […] Cell viability upon treatment of compounds was determined using the MTT assay (Sigma). M17 cells were seeded in a 96-well plate (15,000 cells in 100 μl per well). The cells were treated with Aβ (20 μM) with or without CuCl2 or ZnCl2 (20 μM), followed by the addition of compounds (20 μM, 1% v/v final DMSO concentration), and incubated for 24 h. After incubation, 25 μl MTT (5 mg ml^−1 in phosphate buffered saline (PBS, pH 7.4, GIBCO) was added to each well and the plate was incubated for 4 h at 37 °C. Formazan produced by the cells was solubilized using an acidic solution of N,N-dimethylformamide (DMF, 50%, v/v aq) and SDS (20%, w/v) overnight at room temperature in the dark. The absorbance was measured at 600 nm using a microplate reader. Cell viability was calculated relative to cells containing an equivalent amount of DMSO.

[2] = tested on: Aβ40/Aβ42 toxicity in M17 cells; assay: Cell viability (MTT assay), compounds with Aβ and metal–Aβ; format: cell-based, human; details: compound 20 μM, Aβ40/Aβ42 20 μM, CuCl2 or ZnCl2 20 μM, 24 h
Protocol: as §1

Solubility = format: physicochemical
[3] = UV–vis variable-pH titration of Cu(II)–2 (binding affinity)
Protocol: The pKa value for 2 was determined by UV–vis variable-pH titrations as previously reported. To establish the pKa value, a solution (10 mM NaOH, pH 12, 100 mM NaCl) of 2 (100 μM) was titrated with small amounts of HCl. At least 30 spectra were recorded in the range of pH 2–10. Similarly, a solution containing CuCl2 and 2 (50 μM) in a metal to ligand ratio of 1:2 was titrated with small additions of HCl and at least 30 spectra were recorded over the range pH 2–7. The acidity and stability constants were calculated by using the HypSpec program (Protonic Software, UK)[56]. Speciation diagrams were modelled in the HySS2009 program (Protonic Software)[57].

Cu(II)–Aβ40/Aβ42 = molecular target: T1, Cu(II)–Aβ40/Aβ42 (Homo sapiens, UniProt P05067); assay: nESI-MS / IM–MS interaction studies with Cu(II); format: binding; details: Aβ40 18 μM, copper(II) acetate 40 μM, compound 120 μM, pH 7.5, 37 °C, 30 min
T1 construct: Aβ40 or Aβ42 was dissolved in ammonium hydroxide
T1 sequence (P05067 672-711): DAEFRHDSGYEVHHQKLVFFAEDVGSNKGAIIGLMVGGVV
Protocol: All IM–MS experiments were carried out on a Synapt G2 (Waters, Milford, MA)[27][28][29][58]. Samples were ionized using a nano-electrospray source operated in positive ion mode. MS instrumentation was operated at a backing pressure of 2.7 mbar and sample cone voltage of 40 V. The m/z scale was calibrated using 20 mg ml^−1 aqueous cesium iodide. For peptide-metal ligation studies, the aliquots of Aβ peptides (final concentration 18 μM) were sonicated for 5 s before pre-incubation with or without a source of Cu(II) (copper(II) acetate) at 37 °C for 10 min. […] Solution conditions were 100 mM ammonium acetate (pH 7.5) with 1% v/v DMSO. Covalent binding studies with 4 were performed by incubating aliquots of Aβ with the ligand at a ratio of 1:0, 1:5 and 1:25 in water for either 24 h or a week at 25 °C. After incubation the samples were lyophilized for storage until analysis. Immediately before analysis samples were reconstituted to 50 μM peptide concentration in 1,1,1,3,3,3-hexafluoro-2-propanol, sonicated and diluted further to 25 μM for data acquisition. Accurate mass values for ligand-bound complexes were calculated using the monoisotopic peak difference between apo and ligated states with errors reported as a function of two times the s.d. collision cross section (CCS) measurements were externally calibrated using a database of known values in helium, using values for proteins that bracket the likely CCS and ion mobility values of the unknown ions[58][59]. CCS values are the average of six replicates with errors reported as the least square product. This least square analysis combines inherent calibrant error from drift tube measurements (3%)[59]. calibration curve error, and two times the replicate s.d. error. All other conditions are consistent with previously published methods.
Aβ (100 μM) was incubated with 4 (500 μM) in 100 mM ammonium acetate, pH 7.5, without and with the addition of CuCl2 (100 μM) for 1 h at 37 °C without agitation. Before injection into the mass spectrometer, the resulting Aβ was diluted by 10-fold. ESI–MS analysis was performed using a Synapt G2-Si quadrupole time-of-flight mass spectrometer (Waters, Manchester, UK) equipped with electrospray ionization source. The capillary voltage, sampling cone voltage, and source temperature were set to 2.8 kV, 70 V, and 60 °C, respectively. The backing pressure was adjusted to 3.2 mbar.

Row | SMILES | Toxicity in M17 cells [1] | Toxicity induced by metal–Aβ [2] | Water solubility relative to 1 (Solubility) | logβ (Cu + L = CuL) ([3]; Cu(II):L = 1:2, [2] = 50 μM) | Approximate dissociation constant for Cu(II), 1:1 complex ([3]; UV–vis variable-pH titrations) | pCu (=−log[Cu(II)]free) ([3]; pH 6.6) | Interaction with Aβ in the presence of Cu(II) (Cu(II)–Aβ40/Aβ42) | Solubility in the 2-deoxyribose assay buffer (Solubility; phosphate buffer pH 7.2)
1 | COc1cc(NCc2ccccn2)cc(OC)c1 [compound 2, 3,5-dimethoxy-N-(pyridin-2-ylmethyl)aniline] | nontoxic | diminished | much lower degrees of water solubility | 5.6(8) | micromolar range | 6.24 | stable ternary complexes | 
2 | CN(C)c1ccc(NCc2ccc[nH]2)cc1 [compound 4, N^1-((1H-pyrrol-2-yl)methyl)-N^4,N^4-dimethylbenzene-1,4-diamine] |  |  |  |  |  |  | not shown to bind to Aβ40 | poor solubility under the assay conditions
3 | CN(C)c1ccc(NCc2ccc3ccccc3n2)cc1 [compound 3, N^1,N^1-dimethyl-N^4-(quinolin-2-ylmethyl)benzene-1,4-diamine] |  |  |  |  |  |  | Cu–ligand-dependent signals corresponding to a mass 89 Da lighter than the apo Aβ40/Aβ42 | 
4 | Nc1ccc(NCc2ccccn2)cc1 [compound 1, N^1-(pyridin-2-ylmethyl)benzene-1,4-diamine] | nontoxic | diminished |  |  |  |  | Cu–ligand-dependent signals corresponding to a mass 89 Da lighter than the apo Aβ40/Aβ42 | 
